Source: ChEMBL document CHEMBL1201862, “PubChem BioAssay data set” (2004)
Active and inactive are the calls of the source.

Experiments:
[1] = Fluorescence-based cell-based high throughput dose response assay for inhibitors of the interaction of nucleotide-binding oligomerization domain containing 2 (NOD2) and the receptor-interacting serine-threonine kinase 2 (RIPK2).; type: functional; conditions: Homo sapiens
Steroidogenic factor 1 = Steroidogenic factor 1 (Homo sapiens, UniProt Q13285); experiment: Counterscreen for inverse agonists of the liver receptor homolog-1 (LRH-1; NR5A2): Luminescence-based cell-based high throughput dose response assay to identify inverse agonists of the Steroidogenic Factor 1 Nuclear Receptor (SF1; NR5A1).; type: functional
Chain of Steroidogenic factor 1 (Q13285 whole entry, the tested form may be a part): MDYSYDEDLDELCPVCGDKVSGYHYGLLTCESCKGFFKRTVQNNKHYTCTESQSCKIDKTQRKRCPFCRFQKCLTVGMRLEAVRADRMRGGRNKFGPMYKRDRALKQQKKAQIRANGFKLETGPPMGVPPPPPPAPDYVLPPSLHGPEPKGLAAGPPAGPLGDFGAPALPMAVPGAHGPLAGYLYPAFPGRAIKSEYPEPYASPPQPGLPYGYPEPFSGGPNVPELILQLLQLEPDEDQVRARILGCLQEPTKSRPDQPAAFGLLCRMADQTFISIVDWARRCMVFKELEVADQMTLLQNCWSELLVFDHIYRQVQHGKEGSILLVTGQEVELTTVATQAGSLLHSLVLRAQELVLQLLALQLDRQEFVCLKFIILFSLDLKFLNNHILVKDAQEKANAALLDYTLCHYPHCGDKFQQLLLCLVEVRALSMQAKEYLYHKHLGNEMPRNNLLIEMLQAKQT

[2] = biological target: T1, Polyadenylate-binding protein 1 (Homo sapiens, UniProt P11940); experiment: MLLE domain peptide-binding blockers, IC50 – biochemical, fluorescence polarization, FITC-PAM2 peptide, dose response (AID 602259); type: functional; conditions: read-out: IC50_Mean
T1 sequence (P11940 whole entry, the tested form may be a part): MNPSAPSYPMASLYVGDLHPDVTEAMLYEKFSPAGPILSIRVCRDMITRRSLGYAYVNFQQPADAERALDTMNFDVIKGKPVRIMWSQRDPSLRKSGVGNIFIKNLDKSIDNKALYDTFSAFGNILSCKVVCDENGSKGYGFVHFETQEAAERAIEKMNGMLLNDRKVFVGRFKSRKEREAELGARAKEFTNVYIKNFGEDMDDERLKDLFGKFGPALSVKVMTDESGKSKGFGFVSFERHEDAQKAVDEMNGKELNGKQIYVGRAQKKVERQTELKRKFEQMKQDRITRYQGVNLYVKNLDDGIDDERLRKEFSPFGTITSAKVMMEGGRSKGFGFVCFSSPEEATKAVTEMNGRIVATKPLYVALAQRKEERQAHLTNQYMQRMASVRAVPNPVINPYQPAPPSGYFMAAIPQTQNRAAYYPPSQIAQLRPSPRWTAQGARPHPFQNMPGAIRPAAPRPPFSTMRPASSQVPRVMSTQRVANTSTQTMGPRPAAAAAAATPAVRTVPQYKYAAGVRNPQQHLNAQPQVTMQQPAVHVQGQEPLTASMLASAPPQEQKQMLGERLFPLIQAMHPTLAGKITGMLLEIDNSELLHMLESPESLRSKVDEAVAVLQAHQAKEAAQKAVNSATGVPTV

[3] = biological target: Nuclear receptor subfamily 5 group A member 2 (Homo sapiens, UniProt O00482); type: functional, cell-based;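 note: HEK293T cells transfected with LRH-1 and a StAR promoter luciferase reporter; potency for inhibitors that lower LRH-1 driven reporter light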
Chain of Nuclear receptor subfamily 5 group A member 2 (O00482 whole entry): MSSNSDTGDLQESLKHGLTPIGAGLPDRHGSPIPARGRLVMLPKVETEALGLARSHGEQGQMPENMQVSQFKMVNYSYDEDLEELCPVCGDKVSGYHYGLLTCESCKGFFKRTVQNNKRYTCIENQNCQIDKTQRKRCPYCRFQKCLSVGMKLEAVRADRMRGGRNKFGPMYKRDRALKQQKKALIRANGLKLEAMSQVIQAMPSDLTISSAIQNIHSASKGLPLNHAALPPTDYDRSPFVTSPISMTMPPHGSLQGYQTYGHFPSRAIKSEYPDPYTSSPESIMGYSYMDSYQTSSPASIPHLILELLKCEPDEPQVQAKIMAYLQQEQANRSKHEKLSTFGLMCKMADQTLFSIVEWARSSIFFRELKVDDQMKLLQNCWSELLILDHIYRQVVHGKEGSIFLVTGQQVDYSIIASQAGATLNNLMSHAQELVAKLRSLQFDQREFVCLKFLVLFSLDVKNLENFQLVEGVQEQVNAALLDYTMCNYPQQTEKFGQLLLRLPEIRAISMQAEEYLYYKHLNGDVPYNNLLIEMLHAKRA

[4] = biological target: T1, Polyadenylate-binding protein 1; experiment: MLLE binding blockers, Cy5 peptide tracer – biochemical, fluorescence polarization, Cy5-PAM2 peptide, secondary, miRNA deadenylation inhibitor project, dose response (AID 602260); type: functional; conditions: read-out: IC50_Mean
[5] = nonselective StAR promoter luciferase inhibitors – cell-based, luminescence, luciferase reporter, counter-screen for LRH-1 inverse agonist project, dose response (AID 651969); type: functional
[6] = biological target: T2, Sentrin-specific protease 6 (Homo sapiens, UniProt Q9GZR1); type: functional;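 note: Luminescence-based dose-response confirmatory assay of SENP6 inhibition, following up an ultra-high-throughput screen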
T2 sequence (Q9GZR1 whole entry): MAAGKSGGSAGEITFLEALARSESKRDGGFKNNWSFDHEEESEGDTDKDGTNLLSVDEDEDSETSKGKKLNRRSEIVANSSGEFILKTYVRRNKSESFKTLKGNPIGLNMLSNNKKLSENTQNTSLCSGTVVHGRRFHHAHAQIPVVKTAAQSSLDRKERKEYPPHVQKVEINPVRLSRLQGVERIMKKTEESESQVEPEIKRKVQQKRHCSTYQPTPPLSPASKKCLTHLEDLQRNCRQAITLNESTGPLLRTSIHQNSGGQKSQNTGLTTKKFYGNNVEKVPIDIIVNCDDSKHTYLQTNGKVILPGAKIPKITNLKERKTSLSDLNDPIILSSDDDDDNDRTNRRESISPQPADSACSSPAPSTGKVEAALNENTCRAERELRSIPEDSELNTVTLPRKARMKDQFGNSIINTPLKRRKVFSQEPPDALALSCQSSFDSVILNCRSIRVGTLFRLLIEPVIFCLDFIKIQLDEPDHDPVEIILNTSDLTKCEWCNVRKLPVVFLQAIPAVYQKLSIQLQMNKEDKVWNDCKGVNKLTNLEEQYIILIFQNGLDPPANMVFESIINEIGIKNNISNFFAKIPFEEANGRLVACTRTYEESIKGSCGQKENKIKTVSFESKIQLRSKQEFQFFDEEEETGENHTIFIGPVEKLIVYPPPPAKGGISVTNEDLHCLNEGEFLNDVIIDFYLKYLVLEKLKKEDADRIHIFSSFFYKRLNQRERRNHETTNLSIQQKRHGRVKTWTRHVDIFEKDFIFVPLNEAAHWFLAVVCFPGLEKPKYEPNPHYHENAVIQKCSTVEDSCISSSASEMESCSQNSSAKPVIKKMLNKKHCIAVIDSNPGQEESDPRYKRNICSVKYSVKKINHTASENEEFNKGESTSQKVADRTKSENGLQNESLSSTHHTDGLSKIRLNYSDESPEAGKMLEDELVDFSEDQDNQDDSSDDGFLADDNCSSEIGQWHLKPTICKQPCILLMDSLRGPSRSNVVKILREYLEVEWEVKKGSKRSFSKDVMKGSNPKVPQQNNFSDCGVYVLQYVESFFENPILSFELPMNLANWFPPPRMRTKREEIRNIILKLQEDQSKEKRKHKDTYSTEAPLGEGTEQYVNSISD

Caspase-9 = Caspase-9 (Homo sapiens, UniProt P55211); experiment: inhibitors of purified CASP9 protease – biochemical, fluorescence, plate reader, cherry-picked samples, selectivity assay for caspase-6 inhibitor project, dose response (AID 743293)
Chain of Caspase-9 (P55211 1-315 limits assumed): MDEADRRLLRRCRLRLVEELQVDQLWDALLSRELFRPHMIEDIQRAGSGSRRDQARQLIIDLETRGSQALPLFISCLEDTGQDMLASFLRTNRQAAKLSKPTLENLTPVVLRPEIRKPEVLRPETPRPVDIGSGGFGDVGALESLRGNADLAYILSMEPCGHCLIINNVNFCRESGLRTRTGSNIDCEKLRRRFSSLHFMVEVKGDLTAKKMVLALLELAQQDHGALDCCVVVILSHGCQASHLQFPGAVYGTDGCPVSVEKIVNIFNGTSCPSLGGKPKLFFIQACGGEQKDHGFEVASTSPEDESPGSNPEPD
Chain of Caspase-9 (P55211 331-416 limits assumed): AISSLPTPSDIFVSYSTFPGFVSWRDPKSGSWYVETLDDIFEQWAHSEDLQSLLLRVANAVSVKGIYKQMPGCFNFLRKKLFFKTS

[7] = biological target: T3, Sentrin-specific protease 7 (Homo sapiens, UniProt Q9BQF6); type: functional;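 note: Luminescence-based dose-response confirmation of ultra-high-throughput screening hits, measuring inhibition of SENP7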
T3 sequence (Q9BQF6 whole entry): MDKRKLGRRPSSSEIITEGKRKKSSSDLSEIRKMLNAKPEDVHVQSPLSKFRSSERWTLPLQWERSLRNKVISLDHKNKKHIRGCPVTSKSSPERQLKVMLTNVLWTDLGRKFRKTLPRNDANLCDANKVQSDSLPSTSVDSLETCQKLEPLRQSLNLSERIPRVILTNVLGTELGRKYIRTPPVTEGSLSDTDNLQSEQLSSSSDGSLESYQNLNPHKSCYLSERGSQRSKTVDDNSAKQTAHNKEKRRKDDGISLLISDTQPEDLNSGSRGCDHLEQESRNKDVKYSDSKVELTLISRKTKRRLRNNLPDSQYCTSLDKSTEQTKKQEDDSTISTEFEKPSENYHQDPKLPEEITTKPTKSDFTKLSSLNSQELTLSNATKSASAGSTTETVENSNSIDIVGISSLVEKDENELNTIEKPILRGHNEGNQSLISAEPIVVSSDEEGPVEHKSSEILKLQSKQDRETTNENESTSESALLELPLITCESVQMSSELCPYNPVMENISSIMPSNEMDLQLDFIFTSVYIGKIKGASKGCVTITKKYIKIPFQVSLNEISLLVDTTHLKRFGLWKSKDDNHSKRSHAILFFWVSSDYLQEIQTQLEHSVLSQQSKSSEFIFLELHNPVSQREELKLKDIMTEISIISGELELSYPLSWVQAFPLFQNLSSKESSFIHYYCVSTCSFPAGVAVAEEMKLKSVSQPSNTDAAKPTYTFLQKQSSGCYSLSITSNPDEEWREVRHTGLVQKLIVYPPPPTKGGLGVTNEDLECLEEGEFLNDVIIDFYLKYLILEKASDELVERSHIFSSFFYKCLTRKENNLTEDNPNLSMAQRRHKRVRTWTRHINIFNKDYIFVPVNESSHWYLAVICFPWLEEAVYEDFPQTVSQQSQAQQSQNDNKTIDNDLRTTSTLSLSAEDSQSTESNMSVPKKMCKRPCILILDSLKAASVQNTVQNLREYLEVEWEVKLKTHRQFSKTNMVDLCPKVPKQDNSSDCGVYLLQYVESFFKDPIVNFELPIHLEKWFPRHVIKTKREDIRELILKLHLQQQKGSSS

[8] = biological target: Heat shock protein HSP 90-alpha (Homo sapiens, UniProt P07900); type: functional, organism-based
Caspase-7 = biological target: T4, Caspase-7 (Homo sapiens, UniProt P55210); experiment: caspase-7 enzyme inhibition, selectivity check – biochemical, DEVD-R110 fluorescence, cherry-pick, selectivity assay for caspase-6 inhibitor project, dose response (AID 743295); type: functional
T4 sequence (P55210 whole entry): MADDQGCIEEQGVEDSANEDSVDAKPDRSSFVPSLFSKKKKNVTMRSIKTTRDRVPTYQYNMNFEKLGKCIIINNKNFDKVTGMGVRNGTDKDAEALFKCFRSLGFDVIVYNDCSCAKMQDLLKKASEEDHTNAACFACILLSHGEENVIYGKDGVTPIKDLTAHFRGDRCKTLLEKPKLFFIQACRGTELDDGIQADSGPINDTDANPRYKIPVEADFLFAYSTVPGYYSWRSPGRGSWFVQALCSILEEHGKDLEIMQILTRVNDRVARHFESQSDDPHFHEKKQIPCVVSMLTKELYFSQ

Caspase-6 = biological target: T5, Caspase-6 (Homo sapiens, UniProt P55212); experiment: inhibition of CASP6 peptide cleavage – biochemical, VEID-R110 fluorescence, cherry-pick, dose response (AID 720632)
T5 sequence (P55212 whole entry): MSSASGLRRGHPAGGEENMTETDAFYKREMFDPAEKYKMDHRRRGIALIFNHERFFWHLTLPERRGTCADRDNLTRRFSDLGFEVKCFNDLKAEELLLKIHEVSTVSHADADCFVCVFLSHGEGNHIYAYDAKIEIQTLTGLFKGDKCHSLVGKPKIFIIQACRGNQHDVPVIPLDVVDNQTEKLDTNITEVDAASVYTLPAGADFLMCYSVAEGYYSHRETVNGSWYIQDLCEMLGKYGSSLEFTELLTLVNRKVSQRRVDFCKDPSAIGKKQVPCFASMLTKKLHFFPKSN

Caspase-3 = biological target: T6, Caspase-3 (Homo sapiens, UniProt P42574); type: functional;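 note: Dose-response selectivity test against caspase-3 for candidate inhibitors of sentrin-specific proteases (SENPs)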
T6 sequence (P42574 whole entry): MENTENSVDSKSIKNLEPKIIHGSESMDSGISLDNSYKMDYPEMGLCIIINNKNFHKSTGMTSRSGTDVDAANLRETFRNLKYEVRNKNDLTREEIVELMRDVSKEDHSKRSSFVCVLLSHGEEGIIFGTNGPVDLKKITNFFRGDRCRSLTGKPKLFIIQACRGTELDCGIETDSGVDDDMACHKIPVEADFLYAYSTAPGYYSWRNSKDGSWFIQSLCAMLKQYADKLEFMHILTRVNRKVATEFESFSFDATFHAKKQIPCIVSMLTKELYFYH

Caspase-8 = Caspase-8 (Homo sapiens, UniProt Q14790); experiment: inhibitors of purified CASP8 protease – biochemical, Z-IETD-R110 fluorescence, cherry-picked samples, selectivity assay for caspase-6 inhibitor project, dose response (AID 743294)
Chain of Caspase-8 (Q14790 217-374 limits assumed): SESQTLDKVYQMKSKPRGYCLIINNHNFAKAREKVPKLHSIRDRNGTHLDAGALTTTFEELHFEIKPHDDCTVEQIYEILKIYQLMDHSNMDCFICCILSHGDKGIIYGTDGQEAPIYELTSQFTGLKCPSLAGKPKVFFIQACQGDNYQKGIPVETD
Chain of Caspase-8 (Q14790 385-479 limits assumed): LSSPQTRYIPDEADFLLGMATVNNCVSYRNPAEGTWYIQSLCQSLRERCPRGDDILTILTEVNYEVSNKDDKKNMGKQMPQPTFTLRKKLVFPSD

[9] = biological target: T7, Mitochondrial peptide methionine sulfoxide reductase (Bos taurus, UniProt P54149); experiment: Absorbance-based biochemical high throughput dose response assay for activators of Methionine sulfoxide reductase A (MsrA).; type: functional
T7 sequence (P54149 whole entry): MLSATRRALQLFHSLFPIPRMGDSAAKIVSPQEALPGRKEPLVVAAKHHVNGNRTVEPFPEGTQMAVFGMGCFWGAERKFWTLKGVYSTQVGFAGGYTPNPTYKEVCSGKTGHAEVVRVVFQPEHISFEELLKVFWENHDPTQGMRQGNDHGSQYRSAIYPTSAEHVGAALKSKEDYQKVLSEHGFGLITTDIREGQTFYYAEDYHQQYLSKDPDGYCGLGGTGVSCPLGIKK

[10] = biological target: T8, Sentrin-specific protease 8 (Homo sapiens, UniProt Q96LD8); type: functional;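 note: luminescence read-out of SENP8 inhibition, dose-response confirmation following an ultra-high-throughput screen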
T8 sequence (Q96LD8 whole entry): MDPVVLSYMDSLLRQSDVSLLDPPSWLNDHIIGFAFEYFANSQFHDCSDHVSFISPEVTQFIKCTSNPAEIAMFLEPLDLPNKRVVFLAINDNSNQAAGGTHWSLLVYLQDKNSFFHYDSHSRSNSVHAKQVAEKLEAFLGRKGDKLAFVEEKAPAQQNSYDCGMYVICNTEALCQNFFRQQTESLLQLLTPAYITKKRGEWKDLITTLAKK

[11] = biological target: T9, ATP-dependent translocase ABCB1 (Homo sapiens, UniProt P08183); experiment: inhibition of BCRP-mediated JC-1 efflux – Ig-MXP3 cells, flow cytometry, set 2, dose response (AID 504566); type: functional; conditions: read-out: EC50_MICROM_;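 note: flow cytometry median green fluorescence of retained JC-1 dye; potency of efflux pump inhibition measured as rising substrate retention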
T9 sequence (P08183 whole entry): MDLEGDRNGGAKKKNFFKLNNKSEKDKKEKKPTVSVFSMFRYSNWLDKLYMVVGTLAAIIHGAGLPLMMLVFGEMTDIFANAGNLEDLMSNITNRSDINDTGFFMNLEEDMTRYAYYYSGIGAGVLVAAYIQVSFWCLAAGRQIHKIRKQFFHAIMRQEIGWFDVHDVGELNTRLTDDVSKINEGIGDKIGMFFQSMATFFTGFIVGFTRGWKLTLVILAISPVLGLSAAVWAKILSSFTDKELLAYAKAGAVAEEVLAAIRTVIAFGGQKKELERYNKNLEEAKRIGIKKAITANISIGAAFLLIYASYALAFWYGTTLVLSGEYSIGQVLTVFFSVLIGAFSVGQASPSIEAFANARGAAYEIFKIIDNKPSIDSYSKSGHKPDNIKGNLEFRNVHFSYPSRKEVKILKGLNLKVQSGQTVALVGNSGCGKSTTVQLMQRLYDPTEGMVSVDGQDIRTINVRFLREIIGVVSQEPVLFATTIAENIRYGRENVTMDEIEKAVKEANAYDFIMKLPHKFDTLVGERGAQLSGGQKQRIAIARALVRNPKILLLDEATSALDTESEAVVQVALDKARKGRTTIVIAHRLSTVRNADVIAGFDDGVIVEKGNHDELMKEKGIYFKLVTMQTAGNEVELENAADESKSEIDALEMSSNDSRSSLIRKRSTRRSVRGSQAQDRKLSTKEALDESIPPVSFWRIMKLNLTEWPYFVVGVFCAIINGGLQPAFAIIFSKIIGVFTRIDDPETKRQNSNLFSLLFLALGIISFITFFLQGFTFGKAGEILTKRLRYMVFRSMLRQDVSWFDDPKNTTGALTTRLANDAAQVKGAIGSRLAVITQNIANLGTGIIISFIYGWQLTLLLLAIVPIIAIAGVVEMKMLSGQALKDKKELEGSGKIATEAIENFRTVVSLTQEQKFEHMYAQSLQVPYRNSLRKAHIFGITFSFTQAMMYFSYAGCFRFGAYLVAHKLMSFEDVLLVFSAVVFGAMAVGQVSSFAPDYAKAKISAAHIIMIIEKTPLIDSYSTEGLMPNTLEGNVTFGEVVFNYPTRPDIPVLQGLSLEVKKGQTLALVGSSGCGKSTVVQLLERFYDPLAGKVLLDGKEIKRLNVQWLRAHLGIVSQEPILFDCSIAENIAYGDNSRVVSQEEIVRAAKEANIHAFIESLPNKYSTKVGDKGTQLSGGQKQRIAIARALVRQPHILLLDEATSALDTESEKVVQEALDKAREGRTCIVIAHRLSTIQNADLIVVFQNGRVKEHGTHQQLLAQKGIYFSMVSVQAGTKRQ

[12] = biological target: T9, ATP-dependent translocase ABCB1; experiment: P-gp JC-1 efflux blockade concentration-response – Jurkat-DNR cells, flow cytometry, set 2, dose response (AID 504569); type: functional; conditions: read-out: EC50_MICROM_;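 note: potency of pump inhibitors that raise cellular JC-1 green fluorescence up to the nicardipine level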
[13] = biological target: T7, Mitochondrial peptide methionine sulfoxide reductase; type: functional
Vero [14] = experiment: cells; type: functional, Chlorocebus sabaeus
[15] = viability loss of HPDE-C7K cells – cell-based, fluorescence, HTS, primary screen (AID 431); type: functional; conditions: Homo sapiens
[16] = HPDE-C7 pancreatic duct cell viability loss – fluorescence, HTS (AID 430); type: functional, cell-based; conditions: Homo sapiens
[17] = mitochondrial function rescue without frataxin homolog – Friedreich's ataxia, plus single-dose screen, dose response (AID 1465); type: functional;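 note: yeast depleted of Yfh1p frataxin homolog grown on glycerol needing respiration; WST-1 tetrazolium dye reduction as measure of cellular dehydrogenase metabolic activity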
[18] = biological target: Aryl hydrocarbon receptor (Homo sapiens, UniProt P35869); conditions: Potency;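 note: confirmatory quantitative high-throughput screen measuring activation of the AhR signaling pathway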
Chain of Aryl hydrocarbon receptor (P35869 whole entry): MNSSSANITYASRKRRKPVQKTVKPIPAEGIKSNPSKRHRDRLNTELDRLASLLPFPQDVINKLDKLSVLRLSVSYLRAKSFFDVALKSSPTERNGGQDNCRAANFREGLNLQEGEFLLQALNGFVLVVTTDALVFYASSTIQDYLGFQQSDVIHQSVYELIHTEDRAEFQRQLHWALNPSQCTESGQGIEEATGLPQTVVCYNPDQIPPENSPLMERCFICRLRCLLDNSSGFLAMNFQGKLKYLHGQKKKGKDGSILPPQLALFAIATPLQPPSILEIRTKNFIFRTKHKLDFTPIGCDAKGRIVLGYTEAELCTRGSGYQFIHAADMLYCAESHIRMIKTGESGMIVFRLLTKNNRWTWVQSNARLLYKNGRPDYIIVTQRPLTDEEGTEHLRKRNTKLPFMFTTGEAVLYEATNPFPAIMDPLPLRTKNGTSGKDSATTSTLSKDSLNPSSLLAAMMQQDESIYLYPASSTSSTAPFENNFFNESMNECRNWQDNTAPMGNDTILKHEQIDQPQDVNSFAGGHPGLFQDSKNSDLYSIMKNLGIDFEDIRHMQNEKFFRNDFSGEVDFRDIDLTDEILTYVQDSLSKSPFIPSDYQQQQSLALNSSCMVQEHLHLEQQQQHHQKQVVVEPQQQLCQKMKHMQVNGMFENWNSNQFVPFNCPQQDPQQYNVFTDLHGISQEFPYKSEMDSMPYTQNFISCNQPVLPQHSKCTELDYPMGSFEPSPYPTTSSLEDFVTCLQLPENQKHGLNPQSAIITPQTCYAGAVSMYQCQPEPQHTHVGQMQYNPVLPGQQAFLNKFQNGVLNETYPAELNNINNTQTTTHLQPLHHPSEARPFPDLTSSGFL

H9c2 = experiment: cells; type: functional, cell-based; conditions: Rattus norvegicus, H9c2, Myocardium;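 note: confirmatory concentration-response retest of ultra-high-throughput screening hits for modulation of myocardial damage; cell death induced by hydrogen peroxide oxidative stress; compound pretreatment for 60 min then peroxide exposure for 2 h; potency is for protecting the cells against peroxide damage rather than for killing them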
Vero [19] = experiment: cells; type: functional, cell-based; conditions: Chlorocebus sabaeus

**Q.** For COc1ccc(C2=CC(=O)N(Nc3ccccc3)C2=O)cc1, which IC50 [1] is on record?
**A.** 4.21 µM (active)

**Q.** For O=C(CSc1nnc(CNC(=O)c2ccccc2F)o1)Nc1ccc2c(c1)OCCO2, which IC50 (Steroidogenic factor 1) is on record?
**A.** 1.56 µM (active)

**Q.** And the IC50 [2]?
**A.** > 66 µM (inactive)

**Q.** And the IC50 [3]?
**A.** 17.6 µM (inactive)

**Q.** And the IC50 [4]?
**A.** > 66 µM (inactive)

**Q.** And the IC50 [5]?
**A.** 35.9 µM (inactive)

**Q.** With COc1ccccc1NC(=O)COC(=O)c1ccc([N+](=O)[O-])s1 as the compound, how does the IC50 [6] read?
**A.** 4.94 µM (active)

**Q.** What about the AC50 (Caspase-9) of the same compound?
**A.** 23.7 µM (active)

**Q.** What about the IC50 [7] of the same compound?
**A.** 7.35 µM (active)

**Q.** And the AC50 [8]?
**A.** 6.12 µM (active)

**Q.** And the AC50 (Caspase-7)?
**A.** 16.4 µM (active)

**Q.** And the AC50 (Caspase-6)?
**A.** 1.95 µM (active)

**Q.** And the IC50 (Caspase-3)?
**A.** 11.5 µM (active)

**Q.** What about the AC50 (Caspase-8) of the same compound?
**A.** 22 µM (active)

**Q.** What about the EC50 [9] of the same compound?
**A.** 39.4 µM (inactive)

**Q.** And the IC50 [10]?
**A.** 3.83 µM (active)

**Q.** What does the source list for O=C(c1ccco1)N1CCN(c2cc(-c3ccccc3)nc3cc(-c4ccc(F)cc4)nn23)CC1?
**A.** EC50 [11]: 1.05 µM (active); EC50 [12]: 3.4 µM (active)

**Q.** With Cc1ccccc1/C=N/n1c(S)nnc1C1CCCCC1 as the compound, how does the IC50 [13] read?
**A.** 155 µM (inactive)

**Q.** For COc1cc(/C=C/C(=O)CC(=O)/C=C/c2ccc(O)c(OC)c2)ccc1O [CURCUMIN], which CC50 (Vero [14]) is on record?
**A.** 19.5 µM (active)

**Q.** What about the CC50 (Vero [14]; Chlorocebus sabaeus, Vero) of the same compound?
**A.** 19.9 µM (active)

**Q.** And the EC50 [15]?
**A.** 6.97 µM (active)

**Q.** What about the EC50 [16] of the same compound?
**A.** 13.1 µM (active)

**Q.** What about the EC50 [17] of the same compound?
**A.** > 100 µM (active)

**Q.** And the AC50 [18]?
**A.** 56.2 µM (inconclusive)

**Q.** And the IC50 (H9c2)?
**A.** > 79 µM (inactive)

**Q.** And the IC50 (Vero [19])?
**A.** > 25 µM (active)
